The values below come from patent US20040048831A1, “Verifiable absorption drug delivery form based on cyclodextrins” (priority 2002, published 2004).

Data set [1] is described as follows: Release of cyclodextrin and drug from paper disk dosage forms in vivo (kept under the tongue, residue extracted). The note with it: for Progesterone left in disk, % of the originally present progesterone: progesterone:HPBCD paper disk, non-released disk = 100%. Here is the method:
Paper disks of 2 cm diameter containing only HPBCD were kept under the tongue for 3 to 4 minutes and dried after retrieval. The disks were then extracted by water (50 ml) overnight and soluble carbohydrates in the extracts measured using anthrone reagent (Methods in Carbohydrate Chemistry, Volume 1, page 523, wavelength used 620 nm). HPBCD is reactive toward this reagent. The control paper disk with HPBCD, but not released under the tongue, registered 100 units (arbitrary scale); the empty paper disk registered 1.8 units; disks loaded with HPBCD and released for 3 to 4 minutes under the tongue, 1.6 units.
Paper disks carrying progesterone:HPBCD combination, prepared as in Example 2 were kept under the tongue and, after retrieval, dried and extracted by water (50 ml) overnight. Progesterone in the extracts was measured by spectrophotometry using methods and precautions as in Example 2. When progesterone extracted from the original disks (i.e., not released under tongue) is taken as 100%, disks which were released for 5 minutes under the tongue yielded 3.8% of the originally present progesterone, and disks released for 10 minutes, 3.2%. Several minutes under the tongue thus releases nearly all drug into the oral cavity.

The nature of data set [2]: Release of drugs from paper disk dosage forms in vitro (continuous elution by water, spectrophotometry). Format: physicochemical. The note with it: eluted disks dried and eluted by methanol (50 ml) overnight.
Assay in data set [3]: as above
Format: physicochemical. The note with it: first milliliters of eluent. As for the experimental part: To prepare the dosage form, cyclodextrin was dissolved in water (50% solutions for HPBCD, 20% for gamma-cyclodextrin and sulfopropyl beta-cyclodextrin), or aqueous ethanol for HPBCD (50% solution). This solution was saturated with drug by intensive stirring for two hours. The suspension was then filtered and then spotted on paper or filtration cloth and air dried.
Paper disks of 2 cm diameter and carrying drug: cyclodextrin inclusion complexes in the amounts specified in Table 1 below were continuously eluted by water and the amount of drug eluted was measured by spectrophotometry. For progesterone, a wavelength of 240 nm was used. Data had to be corrected since paper contains a minor component which elutes rapidly and absorbs at this wavelength. Prewashing of paper removes this complication. Amphotericin B content was analyzed using wavelength 410 nm and data previously published (M. Kajtar et al., Biopolymers, 28, 1585-1596, 1989).

As to `CC(O)COC[C@H]1O[C@@H]2O[C@H]3[C@H](O)[C@@H](O)[C@@H](O[C@H]4[C@H](O)[C@@H](O)[C@@H](O[C@H]5[C@H](O)[C@@H](O)[C@@H](O[C@H]6[C@H](O)[C@@H](O)[C@@H](O[C@H]7[C@H](O)[C@@H](O)[C@@H](O[C@H]8[C@H](O)[C@@H](O)[C@@H](O[C@H]1[C@H](O)[C@H]2O)O[C@@H]8COCC(C)O)O[C@@H]7COCC(C)O)O[C@@H]6COCC(C)O)O[C@@H]5COCC(C)O)O[C@@H]4COCC(C)O)O[C@@H]3COCC(C)O` (stereo partly drawn) [HPBCD, hydroxypropyl beta-cyclodextrin], the “Time for release of HPBCD into mouth” value in data set [1] (paper disk under the tongue) was “completed within a few minutes”.
As for `CC(=O)[C@H]1CC[C@H]2[C@@H]3CCC4=CC(=O)CC[C@]4(C)[C@H]3CC[C@]12C` [Progesterone], the “Additional drug release from eluted, dried disks by methanol” value in data set [2] is reported as “No additional release was observed”. Also, the “Progesterone left in disk, % of the originally present progesterone” value came out at 3.8% in data set [1] (released 5 minutes under the tongue) and 3.2% in data set [1] (released 10 minutes under the tongue). The “Completeness of release of drug by water from cyclodextrin paper disks” value in data set [3] is reported as “complete”.
Regarding `C[C@@H]1[C@H](O)[C@@H](C)/C=C/C=C/C=C/C=C/C=C/C=C/C=C/[C@H](O[C@@H]2O[C@H](C)[C@@H](O)[C@H](N)[C@@H]2O)C[C@@H]2O[C@](O)(C[C@@H](O)C[C@@H](O)[C@H](O)CC[C@@H](O)C[C@@H](O)CC(=O)O[C@H]1C)C[C@H](O)[C@H]2C(=O)O` [Amphotericin B], the “Additional drug release from eluted, dried disks by methanol” value in data set [2] was “further drug was release”. Also, the “Completeness of release of drug by water from cyclodextrin paper disks” value in data set [3] is reported as “only partial”.
